# Results reported in patent publication US11331364B2, “Use for JNK inhibitor molecules for treatment of various diseases” (Xigen Inflammation Ltd., priority 2014, dated 2022).
# Square brackets hold non-standard residues; d marks the D form. Peptide text beside a SMILES is read from it.
# Tests used:
# [1] = test system: human whole blood; assay: CD3/CD28-induced TNF-α release in human whole blood, 3 days; type: cell-based; conditions: 1, 3, 10 μM, antibodies 2 μg/mL
# Method: FIG. 24 JNK inhibition and TNF-α release in human whole blood. The JNK inhibitor with SEQ ID NO: 172 was added at three different concentrations, namely 1, 3 and 10 μM 1 h before whole blood stimulation with CD3+/−CD28 antibodies (2 μg/mL) for 3 days.
# Whole blood from human healthy volunteers was collected using a venipuncture connected to a pre-labeled vacuum tube containing sodium citrate. Tubes are gently mixed by inversion 7-8 times; and are then kept at RT until stimulation. 350 μl of RPMI+P/S were added into 1.2 ml-96-well plate. 10 times concentrated of SEQ ID NO: 172 was prepared in RPMI+P/S (50 μl per well). 50 μl was added into 1.2 ml-96 well plates. 50 μl of whole blood was then added in each well where either medium alone or JNK inhibitor has been previously added. Whole blood was incubated at 37° C., 5% CO2 for 60 min. 50 μl/well of ligands diluted in RPMI+P/S was prepared, corresponding to the final dilution 10 times concentrated. After 60 min of incubation, ligand was added; wells were then mixed by pipetting up and down the blood. Whole blood was incubated for 3 days at 37° C. (wells were mixed by pipetting each well up and down once per day). […] Cytokine were then measured using standard Elisa kits. Results are expressed as pg/ml of supernatant of the measured cytokine. […]
# [2] = test system: JNK; assay: JNK and c-Jun activation after Aβ42 stress in WT primary cortical neurons (immunoblot); type: cell-based, mouse
# Method: To this end, primary mouse cortical neuron cultures were exposed to either 2 μM or 25 μM of β-amyloid 1-42 (Aβ42) for 5 hours to induce Aβ42 cell stress. Neurons were pre-treated with or without 10 μM of the specific inhibitor of JNK, XG-104 (SEQ ID No. 172). Levels of phosphorylated JNK (pJNK), total JNK (JNK), cleaved PARP and Tubulin (control) were determined. The ratio of pJNK/JNK served as a measure of JNK activity. The level of cleaved protein PARP, which is known to increase during apoptosis, served as a measure of neuronal apoptosis.
# (§1) To obtain primary cortical neuronal cultures, E15.5 mice embryos were dissected in PBS (Phosphate Buffered Saline) 6% glucose, on ice. Embryos cortices were minced into small pieces and treated with PBS glucose trypsin (Sigma Aldrich, Saint-Louis, USA) for 20 min at 37° C. Dissociated cortical cells were cultured in Neurobasal media complemented with B27, Glutamax and penicillin-streptomycin (Gibco). Neurons were cultured at 37° C., 5% CO2 on pre-coated with poly-L-lysin (Sigma Aldrich) petri dishes. Neurons were cultured to maturity (7 days) before use.
# To induce […] stress 2 μM of Aβ1-42 (Thermo Fisher Scientific, Mass., USA) were used during 5 h on cortical neurons. Aβ42-1 inversed peptide (Thermo Fisher Scientific) was used as negative control. AP 1-42 and Aβ42-1 were dissolved in pure water and incubated at 37° C. for 48 h before use. […]
# (§2) For immunoblot analysis cells were lysed on ice in a lysis buffer containing […] NaPi pH 7.8, […] NaCl, 1% Triton, 0.5% DOC, 0.1% SDS, 10% glycerol, 0.1 μM calyculin A, 1 mM Na3VO4 and 1× of a protease inhibitor cocktail (Sigma Aldrich). Lysates were sonicated and centrifugated 10 min at 15000 g at 4° C. The supernatant protein concentration was determined with the Micro BCA protein assay kit (Thermo Scientific). Thirty micrograms of proteins were resolved on SDS-PAGE and transferred onto nitrocellulose membrane. After blocking with TBS 5% skim milk, the membranes were probed with primary antibodies to JNK full, c-Jun, PKR, eIF2α (Santa Cruz, Danvers, USA), pJNK (Millipore, Billerica, USA), phosphor eIF2a (Thermo Fisher Scientific), PARP and tubulin (Cell Signaling, Danvers, USA). IR Dyes 800 and 700 (Rockland Immunochemical Inc, Gilbertsville, USA) antibodies were used as secondary antibodies. Blots were reveled with Odyssey imaging system (LI-COR Biosciences, Lincoln, USA).
# [3] = test system: primary human T-cells; assay: IL-2 secretion by primary human T-cells; type: cell-based
# From the text: The JNK inhibitors used are indicated by their SEQ ID NO: 172 and 197.
# [4] = test system: PKR−/− neurons; assay: Neuronal apoptosis after Aβ42 stress in PKR−/− primary cortical neurons; type: cell-based, mouse
# Method: as §1
# To induce […] stress 2 μM of Aβ1-42 (Thermo Fisher Scientific, Mass., USA) were used during 5 h on cortical neurons. Aβ42-1 inversed peptide (Thermo Fisher Scientific) was used as negative control. AP 1-42 and Aβ42-1 were dissolved in pure water and incubated at 37° C. for 48 h before use.
# To inhibit JNK, cortical neurons were pre-treated with 10 μM of XG-104 1 h before cell-stress treatment.
# as §2
# For caspase 3 activity analysis culture cell supernatants containing degenerating and dead neurons, and cell medium were collected in parallel of adhesive neurons lysis. Culture cell supernatants were centrifugated 10 min at 15000 g at 4° C. Pellets were then resuspended in lysis buffer and caspase 3 activity was measured by using the Caspase 3 Assay kit reagents and protocol (Abcam, Cambridge, UK).
# [5] = WT neurons, 10 μM, 1 h before 2 μM Aβ42, vs stressed WT neurons without peptides
# [6] = PKR−/− neurons, 10 μM, vs Aβ42 treated PKR−/− neurons
# [7] = dual inhibition of PKR and JNK, vs treated WT neurons
structure (smiles),measurement,setting,value
"CC(C)C[C@H](NC(=O)[C@H](CC(N)=O)NC(=O)[C@H](CC(C)C)NC(=O)[C@@H](NC(=O)[C@@H](C)NC(=O)[C@@H]1CCCN1C(=O)[C@H](CCCNC(=N)N)NC(=O)[C@@H](CCCCN)NC(=O)[C@@H]1CCCN1C(=O)[C@H](CCCNC(=N)N)NC(=O)[C@@H](CCCNC(=N)N)NC(=O)[C@H](CCCNC(=N)N)NC(=O)[C@H](CCCNC(=N)N)NC(=O)[C@H](CCC(N)=O)NC(=O)[C@@H](CCCNC(=N)N)NC(=O)[C@H](CCCNC(=N)N)NC(=O)[C@H](CCCCN)NC(=O)[C@H](CCCCN)NC(=O)[C@H](N)CCCNC(=N)N)[C@@H](C)O)C(=O)N[C@H](Cc1ccccc1)C(N)=O [SEQ ID NO: 172, rKKRrQRRrRPkRPaTLNLf] (H-[dR]KKR[dR]QRR[dR]RP[dK]RP[dA]TLNL[dF]-NH2; N-terminus assumed)",CD3/CD28-induced TNF-α release,[1],did reduce the CD3/CD28-induced TNF-α release in a dose-dependent manner
same,decrease of JNK activity (pJNK/JNK),"[2]; 2 μM Aβ42 5 hours, 5 μM pre-treatment",29.2%
same,decrease of JNK activity (pJNK/JNK),"[2]; 2 μM Aβ42 5 hours, 10 μM pre-treatment",60%
same,decrease of JNK activity (pJNK/JNK),"[2]; 25 μM Aβ42 5 hours, 5 μM pre-treatment",17.5%
same,decrease of JNK activity (pJNK/JNK),"[2]; 25 μM Aβ42 5 hours, 10 μM pre-treatment",59.6%
same,JNK activation,"[2]; WT neurons, 10 μM, 1 h before 2 μM Aβ42",−60%
same,c-Jun expression,[2]; [5],−62%
same,c-Jun phosphorylation,[2]; [5],−29%
same,IL-2 secretion in response to CD3/CD28 stimulation,[3],blocks IL-2 secretion
same,IL-2 secretion in response to PMA/Ionomycin,[3],blocks IL-2 secretion
same,decrease of caspase 3 activity,[4]; [6],61%
same,decrease of cleaved PARP expression level,[4]; [6],86%
same,decrease of cleaved caspase 3 expression level,[4]; [6],42%
same,decrease of PARP expression levels,[4]; [7],93%
same,decrease of caspase 3 activity,[4]; [7],87%
same,decrease of cleaved caspase 3,[4]; [7],83%
